Patent US20230201284A1, “Uses and Formulations of Cannabinoids” (priority 2020, published 2023)
Read-outs that look alike come from different tables or passages of the source.

Assays:
[1] = test system: ischemia-reperfusion-induced kidney injury; conditions: mice, 10 mg/kg after induced kidney injury; cited from earlier work
CD83 = conditions: cited from earlier work
microglial cells = conditions: 1-16 μmol/l; cited from earlier work
IL-6 = conditions: animal models including diabetes, asthma, pancreatitis and hepatitis; cited from earlier work
[2] = test system: LPS-induced acute lung injury; conditions: cited from earlier work
human mononuclear cells = conditions: nanomolar or micromolar concentrations; cited from earlier work
NK, NKT, T and B cells = conditions: healthy rats, cited from earlier work
[3] = n-octanol/water; cited from earlier work
[4] = test system: activated memory T cell line; conditions: 1-5 μmol/l, cited from earlier work
[5] = test system: chemically induced acute hepatitis; conditions: mice, 25 mg/kg; cited from earlier work
human neutrophils = conditions: cited from earlier work
[6] = systemic exposure after i.p. and oral application of CBD in mice (Deiana et al.); type: in vivo; conditions: 20 mg/kg, assuming dose-proportional plasma concentrations
Description: A comparative investigation for systemic exposure after i.p. and oral application of CBD in mice and rats has shown that 120 mg/kg as a single dose leads to a maximum plasma concentration of 14,000 ng/ml in mice (S. Deiana et al. (2012). Plasma and brain pharmacokinetic profile of cannabidiol (CBD), cannabidivarine (CBDV), Delta(9)-tetrahydrocannabivarin (THCV) and cannabigerol (CBG) in rats and mice following oral and intraperitoneal administration and CBD action on obsessive-compulsive behaviour. Psychopharmacology (Berl) 219(3): 859-73).

IL-6 secretion = conditions: cellular models, majority of cases; cited from earlier work
[7] = mice, 120 mg/kg single dose; cited from earlier work
[8] = prophylactic, i.p. 0.3-80 mg/kg 60 min before LPS
[9] = therapeutic, 6 h after LPS, 20 mg/kg

C=C(C)[C@@H]1CCC(C)=C[C@H]1c1c(O)cc(CCCCC)cc1O [CBD, 2-[(1R,6R)-3-methyl-6-(1-methylethenyl)-2-cyclohexen-1-yl]-5-pentyl-1,3-benzenediol]
decreased Treg17 levels and increased Th17 levels [1]: reversed these effects | effect on kidney injury [1]: renoprotective | CD83 dendritic cell activation marker (CD83; dendritic cells from healthy individuals): not | CD83 dendritic cell activation marker (CD83; dendritic cells from individuals with HIV infection): suppresses | apoptosis in microglial cells (microglial cells): induces apoptosis | circulating IL-6 (IL-6): suppress | number of leukocytes including macrophages and neutrophils in the bronchoalveolar lavage fluid ([2]; 20 mg/kg, after LPS-induced lung inflammation): decreases | myeloperoxidase activity [2, 8]: significantly decreased | pro-inflammatory cytokine production including TNF-α and IL-6 [2, 8]: significantly decreased | total leukocytes migration [2, 8]: significantly decreased | vascular permeability [2, 8]: significantly decreased | leukocyte migration (neutrophil, macrophages and lymphocytes) into the lungs [2, 9]: decreased | mechanical lung function [2, 9]: improved | myeloperoxidase activity in the lung tissue [2, 9]: decreased | production of proinflammatory cytokines/chemokines [2, 9]: reduced | vascular permeability [2, 9]: reduced | release of pro-inflammatory cytokines (human mononuclear cells): suppressed | numbers of NK cells and NKT cells (NK, NKT, T and B cells; 2.5 mg/kg per day): increased | numbers of NK cells and NKT cells (NK, NKT, T and B cells; 5 mg/kg per day): not affected | number of T cells including T helper cells and cytotoxic T cells and of B cells (NK, NKT, T and B cells; daily 5 mg/kg): significantly reduced | log P [3]: about 6.1 | IL-6 production and secretion [4]: decreased | production of IL-10 [4]: increased | Th17 signature cytokine IL-17 ([4]; dose-dependently): decrease | expression of MDSCs [5]: induces | pro-inflammatory cytokines such as IL-2, TNF-α and IL-6 [5]: reduction | migration of human neutrophils (human neutrophils): inhibits | target peak exposure [6]: 2,300 ng/ml | effective concentration for suppressive effect on IL-6 secretion (IL-6 secretion): ~5 µM | maximum plasma concentration [7]: 14,000 ng/ml
